Laboratory results as given in patent publication US9481667B2, “Salts and solid forms of isoquinolinones and composition comprising and methods of using the same” (Infinity Pharmaceuticals, Inc., priority 2013, dated 2016).
“Also recorded” adds a separate entry of the source. Structures can show the parent of a compound that is named as a salt. Blank lines part the entries; values can stand above or below the compound they belong to.

Columns and labels:
Format in all cases: physicochemical
[1] = Gravimetric vapour sorption (GVS)
Experimental: Sorption isotherms were obtained using a Hiden IGASorp moisture sorption analyser, controlled by CFRSorp software. The sample temperature was maintained at 25° C. by a Huber re-circulating water bath. The humidity was controlled by mixing streams of dry and wet nitrogen, with a total flow rate of 250 ml/min. The relative humidity (RH) was measured by a calibrated Vaisala RH probe (dynamic range of 0-95% RH), located near the sample. The weight change, (mass relaxation) of the sample as a function of % RH was constantly monitored by the microbalance (accuracy ±0.001 mg). Typically 10-20 mg of sample was placed in a tared mesh stainless steel basket under ambient conditions. The sample was loaded and unloaded at 40% RH and 25° C. (typical room conditions). A moisture sorption isotherm was performed as outlined below (2 scans giving 1 complete cycle). The standard isotherm was performed at 25° C. at 10% RH intervals over a 0-90% RH range.
The software uses a least squares minimisation procedure together with a model of the mass relaxation, to predict an asymptotic value. The measured mass relaxation value must be within 5% of that predicted by the software, before the next % RH value is selected. The minimum equilibration time was set to 1 hour and the maximum to 4 hours. The sample was recovered after completion of the isotherm and re-analysed by XRPD.

[2] = Polymorph screen: maturation (temperature cycling RT/50° C.) in solvents
Experimental: One of 21 solvents was added to each vial in a number of aliquots (up to 30 volumes), with shaking. All the samples were then placed under maturation between RT to 50° C. (4 hours at each temperature) for 3 days. After maturation the samples were analysed by XRPD. Clear solutions were cooled to −20° C. (freezer). If no precipitation occurred samples were evaporated at RT.
Samples were placed under maturation between RT-50° C. (4 hours cycle) for 3 days. After maturation the samples were analyzed by XRPD. Clear solutions were then cooled to −20° C. (freezer). If no precipitation occurred, samples were evaporated at RT.
Bis-Sulfuric acid salt Form 1 of Compound 1 (ca. 35 mg) was weighed into vials. The corresponding solvents and solvent mixtures were added in portions of (a total of) 5, 10, 20, and 30 volumes at 50° C., with shaking, aiming for clear solutions. After each addition, the vials were allowed to shake for 20 minutes, after which observations were made. Solutions were allowed to evaporate, whereas slurries were set for 8 hour temperature cycling maturation, between RT and 50° C., for 5 days.
The oils obtained by solvent evaporation were used for the maturation screen. Anhydrous solvents (5 volumes; 100 μL) were used in order to minimise the amount of water present. Any solutions were allowed to slowly evaporate, whereas slurries were set for 8 hour temperature cycling maturation, between RT and 50° C. After 24 hours, most oils had not mixed with the solvents, and these were scratched with a spatula, producing slurries. These were matured for a further 24 hours before performing XRPD analysis.
Amorphous free base Compound 1 (ca. 25 mg) was weighed into vials. The selected solvents and solvent mixtures (5 to 20 volumes) were added with stirring. Any solutions were allowed to slowly evaporate, whereas slurries were set for 8 hour temperature cycling maturation, between RT and 50° C., for 2 days.
Crystals were ground in order to analyse them by XRPD. Suspensions were set for temperature cycling for a total of five days after which time XRPD analysis was carried out. […] Similar to the screen in Example 20, these XRPD patterns show slight differences (FIG. 37). However, solids from both screens obtained from the same solvent show a matching XRPD pattern, also supporting that this is a series of isostructural solvates. […]

[3] = Solubility assessment using free base Hydrate Form 2; details: RT (cell says RT, head 50° C.)
Experimental: The best solvent systems (clear solutions) were methanol:anisole 1:1 and DMSO (10 volumes, at RT), dioxane (10 volumes, 50° C.), chloroform (20 volumes, RT). […]

[4] = Storage at 40° C./75% RH (solid-state stability); details: for Stability on storage at 40° C./75% RH: 1 week, solid form by XRPD; for Storage 40° C./75% RH: salt screen solids stored 1 week, outcome / XRPD pattern after storage
Experimental: The crystalline solids were filtered, dried at ambient conditions, and stored at 40° C./75% RH for 1 week and analyzed by ^1H NMR/IC.
Samples from the screen using amorphous free base Compound 1 were analysed by ^1H-NMR and DSC, and re-analysis by XRPD was also carried out after drying at 50° C./vacuum and storage at 40° C./75% RH (the same sample was dried and stored at elevated humidity).

SMILES: COc1cc(-c2cccc3cc([C@H](C)Nc4nc(N)ncc4C#N)n(-c4ccccc4)c(=O)c23)ccn1 [Form 1 of the hydrochloride salt of Compound 1] [(S)-2-amino-4-((1-(8-(2-methoxypyridin-4-yl)-1-oxo-2-phenyl-1,2-dihydroisoquinolin-3-yl)ethyl)amino)pyrimidine-5-carbonitrile]
Stability on storage at 40° C./75% RH [4]: deliquesces | Stability on storage at 40° C./75% RH ([4]; listed as hydrochloride): deliquesced | Storage 40° C./75% RH ([4]; listed as Hydrochloric acid): Deliquesced

SMILES: COc1cc(-c2cccc3cc([C@H](C)Nc4nc(N)ncc4C#N)n(-c4ccccc4)c(=O)c23)ccn1 [Form 1 of the isethionate salt of Compound 1] [(S)-2-amino-4-((1-(8-(2-methoxypyridin-4-yl)-1-oxo-2-phenyl-1,2-dihydroisoquinolin-3-yl)ethyl)amino)pyrimidine-5-carbonitrile]
Stability on storage at 40° C./75% RH [4]: deliquesces | Stability on storage at 40° C./75% RH ([4]; listed as isethionate): deliquesced | Storage 40° C./75% RH ([4]; listed as 2-Hydroxyethane sulfonic acid): Deliquesced

SMILES: COc1cc(-c2cccc3cc([C@H](C)Nc4nc(N)ncc4C#N)n(-c4ccccc4)c(=O)c23)ccn1 [Form 4 of Free Base Compound 1]
GVS: moisture on loading ([1]; 25° C.): 0.3 % w/w | GVS: uptaken between 70-90% RH ([1]; 25° C., with hysteresis on desorption): 4.8 % w/w

SMILES: COc1cc(-c2cccc3cc([C@H](C)Nc4nc(N)ncc4C#N)n(-c4ccccc4)c(=O)c23)ccn1 [Form 4 of the free base of Compound 1, (S)-2-amino-4-((1-(8-(2-methoxypyridin-4-yl)-1-oxo-2-phenyl-1,2-dihydroisoquinolin-3-yl)ethyl)amino)pyrimidine-5-carbonitrile]
XRPD after Storage at 40° C./75% RH ([4]; screening sample from H2O): No changes | GVS: form change with humidity ([1]; above 80% RH): hydrates above 80% RH, but reversibly dehydrates back at 40% RH

SMILES: CC(=O)c1ccc2c(c1)[C@@H]1C=CC[C@@H]1[C@H](c1cc3c(cc1Br)OCO3)N2 [amorphous material]
XRPD ([2]; 2-MeTHF 200 μL, cycling RT/50° C.): Crystalline Form 5 | XRPD ([2]; Acetone 100 μL, cycling RT/50° C.): Crystalline Form 5 | XRPD ([2]; Acetonitrile 200 μL, cycling RT/50° C.): Crystalline Form 5 | XRPD ([2]; DCM 150 μL, cycling RT/50° C.): Crystalline Form 5 | XRPD ([2]; DCM:MeOH 1:1 150 μL, cycling RT/50° C.): Crystalline Form 5 | XRPD ([2]; DME 150 μL, cycling RT/50° C.): Crystalline Form 5 | XRPD ([2]; EtOAc 100 μL, cycling RT/50° C.): Crystalline Form 5 | XRPD ([2]; EtOH 250 μL, cycling RT/50° C.): Crystalline Form 5 | XRPD ([2]; EtOH/5% water 150 μL, cycling RT/50° C.): Crystalline Form 5 | XRPD ([2]; H2O 450 μL, cycling RT/50° C.): Partially crystalline =; also recorded: matches FB Pattern 4 | XRPD ([2]; IPA 150 μL, cycling RT/50° C.): Crystalline Form 5 | XRPD ([2]; IPAc 300 μL, 16 hours maturation): Crystalline Form 5 | XRPD ([2]; MIBK 100 μL, cycling RT/50° C.): Crystalline Form 5 | XRPD ([2]; MeCN/5% water 150 μL, cycling RT/50° C.): Crystalline Form 5 | XRPD ([2]; MeOH 250 μL, cycling RT/50° C.): Crystalline Form 5 | XRPD ([2]; TBME 300 μL, cycling RT/50° C.): Crystalline Form 5 | XRPD ([2]; THF 150 μL, cycling RT/50° C.): Crystalline Form 5 | XRPD ([2]; THF/5% water 150 μL, cycling RT/50° C.): Crystalline Form 5

Continued, values first:

GVS: XRPD after the experiment [1]: anhydrous Form 4 | GVS: moisture on loading ([1]; 25° C.): 6.3% w/w moisture on | GVS: reversible moisture uptake between 0-90% RH ([1]; second cycle): cycle shows 4.9%
SMILES: CC(=O)O.COc1cc(-c2cccc3cc([C@H](C)Nc4nc(N)ncc4C#N)n(-c4ccccc4)c(=O)c23)ccn1.COc1cc(-c2cccc3cc([C@H](C)Nc4nc(N)ncc4C#N)n(-c4ccccc4)c(=O)c23)ccn1 [Batch 1 of Form 6]

XRPD ([2]; 1-butanol, Maturation): Crystalline Form 5 | XRPD ([2]; 2-MeTHF, evaporation yielded oil, maturation of oil): Crystalline Form 5 | XRPD ([2]; Acetone, Maturation): Crystalline Form 5 | XRPD ([2]; DCM:MeOH 1:1, Crystallization in fridge): Crystalline Form 5 + Form 1 | XRPD ([2]; DCM, Crystallization in fridge): Crystalline Form 5 | XRPD ([2]; DMSO, no crystallization in fridge, set for evaporation): Amorphous | XRPD ([2]; Dioxane, evaporation yielded oil, maturation of oil): Crystalline Form 5 + Form 3 | XRPD ([2]; EtOAc, Maturation): Crystalline Form 5 | XRPD ([2]; EtOH/5% water, Maturation): Crystalline Form 5 | XRPD ([2]; EtOH/water 1:1, Maturation): Crystalline Form 2 | XRPD ([2]; EtOH, Maturation): Crystalline Form 5 | XRPD ([2]; IPA, Maturation): Crystalline Form 5 | XRPD ([2]; IPAc, Maturation): Crystalline Form 5 | XRPD ([2]; MIBK, Maturation): Crystalline Form 5 | XRPD ([2]; MeCN/5% water, Crystallization in fridge): Crystalline Form 5 | XRPD ([2]; MeOH/anisole, Crystallization in fridge): Crystalline Form 5 | XRPD ([2]; THF, Crystallization in fridge): Crystalline Form 5 | XRPD ([2]; acetonitrile, Maturation): Crystalline Form 5 | XRPD ([2]; chloroform, cooling in fridge yielded oil, maturation of oil): Crystalline Form 5 | Solubility ([3]; DMSO, 10 vols): ✓ (RT) | Solubility ([3]; MeOH/anisole, 10 vols): ✓ (RT) | Solubility ([3]; chloroform, 20 vols): ✓ (RT)
SMILES: COc1cc(-c2cccc3cc([C@H](C)Nc4nc(N)ncc4C#N)n(-c4ccccc4)c(=O)c23)ccn1.O [FB Hydrate Form 2]

Stability on storage at 40° C./75% RH [4]: converts to Form 3 | Storage at elevated humidity ([4]; elevated humidity conditions, solid form): conversion to Hydrate Form 3 | GVS: form change with humidity ([1]; at 0% RH): Desolvation to the anhydrous Form 4
SMILES: COc1cc(-c2cccc3cc([C@H](C)Nc4nc(N)ncc4C#N)n(-c4ccccc4)c(=O)c23)ccn1 [Form 6 of the free base of Compound 1, (S)-2-amino-4-((1-(8-(2-methoxypyridin-4-yl)-1-oxo-2-phenyl-1,2-dihydroisoquinolin-3-yl)ethyl)amino)pyrimidine-5-carbonitrile]
